The record followed here is patent US7074596B2, “Synthesis and use of anti-reverse mRNA cap analogues” (Board of Supervisors of Louisiana State University And …, priority 2002, dated 2006).

In assay [1] the test system is RRL (rabbit reticulocyte lysate) system. Description: Translation of capped luciferase mRNAs in the RRL system (luciferase activity). Format: biochemical. To be noted: translated 60 min in RRL, slope of luciferase activity versus mRNA concentration, FIG. 4. From the text:
Two lengths of RNA, either uncapped or capped with one of the cap analogues, were synthesized by in vitro transcription. The DNA template used for both lengths of RNA was pSP−luc+ (Promega), which contains an SP6 bacteriophage promoter and a sequence encoding luciferase. To generate the short RNAs (43 bases exclusive of the cap), the plasmid was digested with Ncol. To generate the long RNAs (1706 bases, containing the entire luciferase coding region), the plasmid was digested with EcoRl. […]
A micrococcal nuclease-treated RRL (rabbit reticulocyte lysate) system was used for in vitro translation as described in A. Cai et al., “Quantitative assessment of mRNA cap analogs as inhibitors of in vitro translation,” Biochemistry, vol.38, pp. 8538–8547 (1999). In some cases, the mRNA used in this system was natural rabbit globin mRNA, and protein synthesis was measured by incorporation of [^3H]Leu into a trichloroacetic acid-precipitable form. […]
FIG. 4 depicts the translational activity of the ARCA-capped mRNAs. […] The RNAs were translated for 60 min in the RRL system, and luciferase activity was measured in triplicate by luminometry (RLU, relative light units). […]

Assay [2] addresses T1, SP6 polymerase (Enterobacteria phage SP6, UniProt P06221).
T1 construct: purchased Promega
T1 sequence (P06221 1-874): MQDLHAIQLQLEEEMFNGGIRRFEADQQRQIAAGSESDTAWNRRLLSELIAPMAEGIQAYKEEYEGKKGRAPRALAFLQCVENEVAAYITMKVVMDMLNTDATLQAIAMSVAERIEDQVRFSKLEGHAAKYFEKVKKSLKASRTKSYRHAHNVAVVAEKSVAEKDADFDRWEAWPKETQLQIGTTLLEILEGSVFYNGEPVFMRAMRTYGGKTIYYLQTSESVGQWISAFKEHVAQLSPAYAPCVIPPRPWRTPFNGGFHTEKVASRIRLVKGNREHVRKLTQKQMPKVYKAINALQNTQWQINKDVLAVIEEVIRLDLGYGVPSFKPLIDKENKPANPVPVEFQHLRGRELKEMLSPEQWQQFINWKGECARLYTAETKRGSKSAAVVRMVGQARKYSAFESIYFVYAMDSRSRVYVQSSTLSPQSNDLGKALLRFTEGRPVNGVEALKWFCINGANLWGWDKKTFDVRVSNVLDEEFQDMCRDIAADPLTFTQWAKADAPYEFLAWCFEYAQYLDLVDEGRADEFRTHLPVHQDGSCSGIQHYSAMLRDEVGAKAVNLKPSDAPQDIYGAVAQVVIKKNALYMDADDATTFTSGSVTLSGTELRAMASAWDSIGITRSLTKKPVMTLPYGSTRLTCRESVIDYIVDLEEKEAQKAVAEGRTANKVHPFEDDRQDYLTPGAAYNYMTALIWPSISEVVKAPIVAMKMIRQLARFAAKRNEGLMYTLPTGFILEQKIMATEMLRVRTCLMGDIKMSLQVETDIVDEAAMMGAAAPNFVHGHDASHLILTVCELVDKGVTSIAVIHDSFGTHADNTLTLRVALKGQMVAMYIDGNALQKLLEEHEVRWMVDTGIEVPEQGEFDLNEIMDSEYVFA
Description: Analysis of cap orientation in in vitro-synthesized RNA transcripts by RNase T2 + TAP digestion and anion exchange HPLC. In kind it is biochemical, bacteriophage SP6. As to conditions: for Orientation of incorporation into RNA (in words): RNase T2 and TAP digestion, HPLC, FIG. 2; for Product observed RNase T2 + TAP: 7-methylated pGp* product (reverse orientation of the cap) / Product observed RNase T2 + TAP: pGp* (normal orientation of the cap): short RNA (43 bases) from Ncol-digested pSP-luc+, [α-32P]ATP, share of 5′ end labeled digestion product. The method, then:
Mono- and dinucleotides obtained by enzymatic digestion of in vitro-synthesized RNAs were analyzed by HPLC using a Waters 625 instrument with a 996 PDA detector on a 4.5×250 mm Partisil 10SAX/25 column (Whatman). The program for elution of nucleotides comprised water for the first 5 min; a linear gradient of […]; a linear gradient of 87.5 to 500 mM of KH2PO4 over 30 min; and isocratic elution at 500 mM KH2PO4 for 21 min—all at a flow rate of 1 mL/min.
Two lengths of RNA, either uncapped or capped with one of the cap analogues, were synthesized by in vitro transcription. The DNA template used for both lengths of RNA was pSP−luc+ (Promega), which contains an SP6 bacteriophage promoter and a sequence encoding luciferase. To generate the short RNAs (43 bases exclusive of the cap), the plasmid was digested with Ncol. To generate the long RNAs (1706 bases, containing the entire luciferase coding region), the plasmid was digested with EcoRl. A typical 20 μL in vitro transcription reaction contained 40 mM Tris-HCl, pH 7.9, 6 mM MgCl2, 2 mM spermidine, 10 mM DTT, 2 μg BSA, 20 units of RNasin (Promega), 0.5 mM ATP, 0.5 mM CTP, 0.5 mM UTP, 0.1 mM GTP, 1 mM cap analogue (GpppG, m7GpppG, m^73′dGpppG, or m2^7,O3′GpppG), 0.2–1.0 μg DNA, and 20 units of SP6 polymerase (Promega). Reactions to synthesize the short RNAs also contained 28 μCi of [α-^32P]ATP (ICN), and those to synthesize the long RNAs contained 0.8 μCi of [α-^32P]CTP (ICN). Reaction mixtures were incubated for 60 min at 37° C., extracted with phenol and chloroform, and the solution was made 2 M in sodium acetate. The nucleic acids were then precipitated with 3 volumes of ethanol on dry ice for 5 min, and the mixture was centrifuged at 14,000 rpm for 30 min. The resulting pellet was dissolved in water, and the solution was made 0.2 M in sodium acetate. The nucleic acid was precipitated with 2.5 volumes of ethanol at 4° C. for 30 min, and the mixture was centrifuged at 14,000 rpm for 30 min. The pellet was allowed to air-dry and then dissolved in diethylpyrocarbonate-treated water.
The short RNAs were digested with 67 U RNase T2 (Life Technologies) in 15 μL of 0.14 M sodium acetate, pH 4.6, at 37° C. for 60 min. In some cases, the RNAs were subjected to a two-step digestion instead. The first digestion was with 10 U TAP (tobacco acid pyrophosphatase) (Epicentre Technologies) in 5 μL of 50 mM sodium acetate, pH 6.0, 1 mM EDTA, 0.1% β-mercaptoethanol, and 0.01% Triton X-100 at 37° C. for 60 min. The digestion was continued for 60 min at 37° C. with 67 U RNase T2 in a final volume of 16 μL of 0.12 M sodium acetate, pH 4.6. Samples were analyzed without further treatment by anion exchange HPLC as described above.
The structure of the ARCAs was designed to prevent incorporation into RNA in the reverse orientation. […] To obtain a higher proportion of radioactivity in the cap versus the internal positions, a shorter DNA template was produced by cleaving pSP−luc+ with Ncol instead of EcoRl. This digestion was expected to yield an RNA product of 43 bases (plus the cap).
RNase T2 digests RNA with no base specificity. Thus, it was expected to generate primarily 3′-NMPs from this RNA. Those nucleotide residues that were located 5′ to an A residue would acquire a ^32P-labeled 3′-phosphate by nearest-neighbor transfer. The pyrophosphate bonds in the cap, however, are not susceptible to RNase T2. Since the first nucleotide residue after the cap in the synthetic RNA is an A, the α-phosphate of [α-^32P]ATP would be transferred to the cap following RNase T2 digestion.

For assay [3], the target named is T2, elF4E (Oryctolagus cuniculus, UniProt P29338).
T2 construct: A micrococcal nuclease-treated RRL (rabbit reticulocyte lysate) system was used for in vitro translation; from tissue; host or cells: rabbit reticulocyte lysate, micrococcal nuclease-treated
T2 sequence (P29338 whole entry): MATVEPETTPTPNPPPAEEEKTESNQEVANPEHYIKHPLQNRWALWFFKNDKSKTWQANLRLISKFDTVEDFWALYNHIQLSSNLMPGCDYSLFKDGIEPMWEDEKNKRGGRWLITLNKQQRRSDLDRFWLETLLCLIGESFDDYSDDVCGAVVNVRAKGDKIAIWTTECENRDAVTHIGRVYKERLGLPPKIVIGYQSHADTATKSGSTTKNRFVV
Nature of the assay: Competitive inhibition of cell-free translation of globin mRNA in the RRL system. Format: biochemical, rabbit. To be noted: FIG. 3.
Description: The ability of cap analogues to inhibit cell-free translation in the RRL system programmed with globin mRNA was measured as described in Cai et al. (1999). Data were fit by least squares minimization to a theoretical rate equation.
We separately tested GpppG, m^7GpppG, and the two ARCAs for their ability to compete with natural globin mRNA for recognition by the translational machinery, and thereby to inhibit translation in an RRL system. […] Natural rabbit globin mRNA was translated at 5 μg/mL in the RRL system, and globin synthesis was detected by incorporation of [^3H]Leu into protein.

Molecules are shown by their SMILES.

`CO[C@H]1[C@@H](O)[C@H](n2c[n+](C)c3c(=O)[nH]c(N)nc32)O[C@@H]1COP(=O)(O)OP(=O)(O)OP(=O)(O)OC[C@H]1O[C@@H](n2cnc3c(=O)[nH]c(N)nc32)[C@H](O)[C@@H]1O` [m2^7,O3′GpppG, P^1-3′-O, 7-Dimethylguanosine-5′P^3-guanosine-5′triphosphate]: the “Translational efficiency of capped luciferase mRNA (in words)” value in assay [1] is given as “more efficient in translation than m^7GpppG-capped mRNA”. In addition, in assay [2], the “Orientation of incorporation into RNA (in words)” value is “incorporated in only one orientation”, the “Product observed RNase T2 + TAP: 7-methylated pGp* product (reverse orientation of the cap)” value is 0% and the “Product observed RNase T2 + TAP: pGp* (normal orientation of the cap)” value (“Product observed RNase T2 + TAP: pGp*” below) was found to be 100%.

As to `C[n+]1cn([C@@H]2O[C@H](COP(=O)(O)OP(=O)(O)OP(=O)(O)OC[C@H]3O[C@@H](n4cnc5c(=O)[nH]c(N)nc54)[C@H](O)[C@@H]3O)C[C@H]2O)c2nc(N)[nH]c(=O)c21` [m^73′dGpppG, P^1-3′-Deoxy-7-methylguanosine-5′ P^3-guanosine-5′triphosphate], in assay [1], the “Translational efficiency of capped luciferase mRNA (in words)” value is listed as “more efficient in translation than m^7GpppG-capped mRNA”. For the same molecule, in assay [2], the “Orientation of incorporation into RNA (in words)” value was “incorporated in only a single orientation”, the “Product observed RNase T2 + TAP: 7-methylated pGp* product (reverse orientation of the cap)” value came out at 0% and the “Product observed RNase T2 + TAP: pGp*” value came to 100%.

With `Nc1nc2c(ncn2[C@@H]2O[C@H](COP(=O)(O)OP(=O)(O)OP(=O)(O)OC[C@H]3O[C@@H](n4cnc5c(=O)[nH]c(N)nc54)[C@H](O)[C@@H]3O)[C@@H](O)[C@H]2O)c(=O)[nH]1` [GpppG, reference compound], the “Product observed RNase T2 + TAP: pGp*” value in assay [2] is listed as 100%. Further, the “Inhibition of translation (in words)” value in assay [3] (natural rabbit globin mRNA in RRL system) is on record as “did not act as an inhibitor”.

For the molecule `Cn1c[n+](C2OC(COP(=O)(O)OP(=O)(O)OP(=O)(O)OCC3OC(n4cnc5c(=O)[nH]c(N)nc54)C(O)C3O)C(O)C2O)c2nc(N)nc([O-])c21` (centres unmarked) [m^7GpppG, m^7G(5′)ppp(5′)G, reference compound], the “Extent of reverse capping” value in assay [2] (experiments of FIG. 2 and Table 3) is on record as “approximately 33%”. Moreover, in assay [2], the “Product observed RNase T2 + TAP: 7-methylated pGp* product (reverse orientation of the cap)” value is given as 33% and the “Product observed RNase T2 + TAP: pGp*” value is recorded as 67%. Moreover, in assay [3] (natural rabbit globin mRNA 5 μg/mL, [3H]Leu incorporation, least-squares fit of translation data, read-out: Kl, dissociation constant for the cap analogue•elF4E complex), the Ki stood at 27.8 ± 12.6 µM.
